Each block holds one compound with its values, some of them ahead of it. Activity calls are given as the source filed them.
Legend:
[1] = inhibitors of Bluetongue virus cytopathic effect, confirmation, arbovirus, BSR cells (AID 1250); type: functional;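 note: protection from viral cytopathic effect measured as cell viability by ATP luminescence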
Aminopeptidase N = target: T1, Aminopeptidase N (Plasmodium falciparum FcB1/Columbia, UniProt O96935); experiment: P. falciparum M1AAP inhibitors, biochemical, fluorogenic H-Leu-NHMec substrate, 1536-well (AID 1445); parameters: species or system Plasmodium falciparum 3D7, 3D7
T1 sequence (O96935 whole entry): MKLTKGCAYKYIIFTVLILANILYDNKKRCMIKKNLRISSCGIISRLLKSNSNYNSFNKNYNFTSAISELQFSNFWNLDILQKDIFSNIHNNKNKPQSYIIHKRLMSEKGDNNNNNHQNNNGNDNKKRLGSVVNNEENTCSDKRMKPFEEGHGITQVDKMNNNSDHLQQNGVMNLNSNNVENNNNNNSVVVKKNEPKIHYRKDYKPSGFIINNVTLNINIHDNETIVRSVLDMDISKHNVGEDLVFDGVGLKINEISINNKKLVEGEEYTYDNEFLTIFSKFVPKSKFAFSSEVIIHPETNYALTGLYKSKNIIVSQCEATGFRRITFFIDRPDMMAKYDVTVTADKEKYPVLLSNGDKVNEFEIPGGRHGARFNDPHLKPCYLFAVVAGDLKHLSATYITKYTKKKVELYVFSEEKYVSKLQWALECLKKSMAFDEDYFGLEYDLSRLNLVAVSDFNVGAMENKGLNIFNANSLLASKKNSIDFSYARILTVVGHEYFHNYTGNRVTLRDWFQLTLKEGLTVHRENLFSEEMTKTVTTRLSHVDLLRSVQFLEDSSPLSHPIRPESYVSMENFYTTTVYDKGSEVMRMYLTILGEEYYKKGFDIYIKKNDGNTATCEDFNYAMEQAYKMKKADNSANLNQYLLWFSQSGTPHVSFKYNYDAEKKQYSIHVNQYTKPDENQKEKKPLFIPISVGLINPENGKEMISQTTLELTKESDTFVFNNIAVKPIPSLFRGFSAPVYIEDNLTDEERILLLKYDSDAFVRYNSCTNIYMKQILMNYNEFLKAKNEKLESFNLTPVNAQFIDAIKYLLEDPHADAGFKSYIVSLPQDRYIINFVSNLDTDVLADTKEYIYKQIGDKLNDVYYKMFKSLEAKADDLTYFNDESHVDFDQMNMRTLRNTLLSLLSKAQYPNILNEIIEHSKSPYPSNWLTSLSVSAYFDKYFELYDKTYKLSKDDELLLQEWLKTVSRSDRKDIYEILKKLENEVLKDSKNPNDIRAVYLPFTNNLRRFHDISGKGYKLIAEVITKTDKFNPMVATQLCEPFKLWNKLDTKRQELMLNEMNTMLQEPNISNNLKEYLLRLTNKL

NS3 = NS3 (Hepatitis C virus, UniProt A3EZJ3); experiment: PubChem AID 2173; parameters: species or system Hepacivirus hominis
NS3, sequence (A3EZJ3 whole entry): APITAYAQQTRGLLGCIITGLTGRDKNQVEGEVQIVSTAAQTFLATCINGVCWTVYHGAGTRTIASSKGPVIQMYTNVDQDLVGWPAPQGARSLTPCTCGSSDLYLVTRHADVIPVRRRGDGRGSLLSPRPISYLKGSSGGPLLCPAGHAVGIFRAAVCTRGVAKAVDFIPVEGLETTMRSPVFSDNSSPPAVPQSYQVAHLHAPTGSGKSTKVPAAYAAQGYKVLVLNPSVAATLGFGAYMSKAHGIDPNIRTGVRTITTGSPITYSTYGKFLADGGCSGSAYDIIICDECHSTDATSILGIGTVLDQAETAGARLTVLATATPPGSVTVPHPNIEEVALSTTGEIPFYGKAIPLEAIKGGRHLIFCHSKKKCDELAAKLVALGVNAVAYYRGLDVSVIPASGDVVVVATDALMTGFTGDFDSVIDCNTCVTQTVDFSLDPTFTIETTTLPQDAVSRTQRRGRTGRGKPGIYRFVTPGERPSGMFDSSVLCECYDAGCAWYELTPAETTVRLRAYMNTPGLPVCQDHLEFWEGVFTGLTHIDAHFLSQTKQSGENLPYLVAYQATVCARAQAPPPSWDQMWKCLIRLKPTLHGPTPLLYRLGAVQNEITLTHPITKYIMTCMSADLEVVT

[2] = target: T2, Short transient receptor potential channel 4 (Mus musculus, UniProt Q9QUQ5); experiment: mouse TRPC4 channel activators, dose response, cell-based, HEK293 TRPC4/mu-opioid, Fluo-4 calcium (AID 434937); type: functional
T2 sequence (Q9QUQ5 whole entry): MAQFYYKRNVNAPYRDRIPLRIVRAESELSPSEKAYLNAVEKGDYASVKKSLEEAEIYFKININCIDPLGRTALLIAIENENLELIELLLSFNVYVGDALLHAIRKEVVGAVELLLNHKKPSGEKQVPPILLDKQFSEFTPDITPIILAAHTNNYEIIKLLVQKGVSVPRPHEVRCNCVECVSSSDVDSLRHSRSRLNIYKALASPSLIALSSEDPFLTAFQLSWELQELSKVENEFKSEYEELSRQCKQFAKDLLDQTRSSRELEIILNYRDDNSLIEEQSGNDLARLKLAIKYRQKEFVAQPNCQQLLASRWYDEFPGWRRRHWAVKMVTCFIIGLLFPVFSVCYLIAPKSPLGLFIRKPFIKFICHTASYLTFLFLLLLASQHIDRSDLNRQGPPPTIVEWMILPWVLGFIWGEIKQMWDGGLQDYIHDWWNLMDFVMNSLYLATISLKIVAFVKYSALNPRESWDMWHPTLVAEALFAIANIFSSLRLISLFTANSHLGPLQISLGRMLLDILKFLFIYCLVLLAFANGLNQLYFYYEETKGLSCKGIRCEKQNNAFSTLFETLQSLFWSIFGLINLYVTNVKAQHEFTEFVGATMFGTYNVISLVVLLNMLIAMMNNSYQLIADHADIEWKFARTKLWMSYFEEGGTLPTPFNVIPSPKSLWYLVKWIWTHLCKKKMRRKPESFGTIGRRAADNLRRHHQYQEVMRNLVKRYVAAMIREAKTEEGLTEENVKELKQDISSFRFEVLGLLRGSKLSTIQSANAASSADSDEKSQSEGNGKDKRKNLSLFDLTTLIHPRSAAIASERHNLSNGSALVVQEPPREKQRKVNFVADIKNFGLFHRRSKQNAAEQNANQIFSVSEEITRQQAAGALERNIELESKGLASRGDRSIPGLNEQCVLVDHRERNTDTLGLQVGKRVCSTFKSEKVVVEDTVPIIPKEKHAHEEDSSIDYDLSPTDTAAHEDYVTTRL

[3] = target: Lysosomal acid glucosylceramidase (Homo sapiens, UniProt P04062); experiment: Dose response cell-based high throughput screening assay to identify enhancers of beta-glucosidase activity. [Related pubchem assays: 784 ]; type: functional
Lysosomal acid glucosylceramidase, sequence (P04062 whole entry): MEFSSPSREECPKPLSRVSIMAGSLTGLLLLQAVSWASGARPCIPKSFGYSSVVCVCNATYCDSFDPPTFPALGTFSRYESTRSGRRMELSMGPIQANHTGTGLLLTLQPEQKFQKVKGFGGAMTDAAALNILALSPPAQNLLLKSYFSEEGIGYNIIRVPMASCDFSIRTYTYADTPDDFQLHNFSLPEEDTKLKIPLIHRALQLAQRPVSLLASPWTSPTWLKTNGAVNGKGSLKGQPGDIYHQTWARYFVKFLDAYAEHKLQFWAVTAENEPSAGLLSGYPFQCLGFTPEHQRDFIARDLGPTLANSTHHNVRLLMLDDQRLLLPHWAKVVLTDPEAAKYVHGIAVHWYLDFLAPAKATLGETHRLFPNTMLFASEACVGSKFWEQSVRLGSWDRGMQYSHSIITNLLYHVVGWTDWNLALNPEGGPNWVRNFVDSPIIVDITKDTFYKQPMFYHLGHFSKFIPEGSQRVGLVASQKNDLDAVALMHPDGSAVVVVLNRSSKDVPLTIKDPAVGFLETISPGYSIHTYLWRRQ

[4] = target: Acyl-homoserine lactone acylase PvdQ (Pseudomonas aeruginosa (strain LESB58), UniProt Q9I194); experiment: P. aeruginosa PvdQ acylase inhibitors, dose response, biochemical, fluorescence, plate reader and imaging, cherry-picks (AID 493231)
Acyl-homoserine lactone acylase PvdQ, sequence (Q9I194 24-193 limits assumed): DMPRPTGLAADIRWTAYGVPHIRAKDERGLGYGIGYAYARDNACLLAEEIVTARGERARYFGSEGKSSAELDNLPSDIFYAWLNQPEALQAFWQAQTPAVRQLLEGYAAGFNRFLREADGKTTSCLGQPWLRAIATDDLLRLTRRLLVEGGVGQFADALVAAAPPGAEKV
Acyl-homoserine lactone acylase PvdQ, sequence (Q9I194 217-762 limits assumed): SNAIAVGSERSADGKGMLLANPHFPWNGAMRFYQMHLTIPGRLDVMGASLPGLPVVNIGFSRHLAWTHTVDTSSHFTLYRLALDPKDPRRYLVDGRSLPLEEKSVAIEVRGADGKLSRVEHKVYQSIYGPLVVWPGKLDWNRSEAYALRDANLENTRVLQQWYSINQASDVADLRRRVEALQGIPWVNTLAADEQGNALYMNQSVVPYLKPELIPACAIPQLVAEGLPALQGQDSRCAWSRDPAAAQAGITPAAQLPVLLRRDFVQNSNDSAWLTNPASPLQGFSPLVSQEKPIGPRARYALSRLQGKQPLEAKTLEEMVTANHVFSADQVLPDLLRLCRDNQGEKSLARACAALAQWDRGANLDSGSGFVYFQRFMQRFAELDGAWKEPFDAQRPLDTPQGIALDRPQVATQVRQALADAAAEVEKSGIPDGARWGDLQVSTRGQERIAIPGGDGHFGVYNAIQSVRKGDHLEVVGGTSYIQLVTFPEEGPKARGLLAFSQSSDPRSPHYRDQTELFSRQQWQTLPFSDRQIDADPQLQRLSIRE

HEK293 [5] = experiment: TNF Induced NF-kB Luciferase in 293-NF-kB-Luc Stable Cells. [Related pubchem assays: 1266, 1299, 1269, 1373, 1292, 1290, 1302, 1371, 1283, 1270, 1295, 1271, 1375, 1294, 1374, 1281, 1293, 1291, 1289, 1280, 465, 1368, 1364, 1282, 1372, 1365, 1369, 1370, 1367, 1366 ]; type: functional, cell-based; conditions: Homo sapiens
[6] = target: Luciferin 4-monooxygenase (Photinus pyralis, UniProt P08659); experiment: In vitro luciferase assay using purified luciferase. [Related pubchem assays: 1299, 1270, 1295, 1375, 1287, 1281, 1293, 1291, 1289, 1280, 465, 1364, 1282, 1372, 1365, 1370, 1367, 1366, 1266, 1373, 1292, 1290, 1302, 1371, 1283, 1271, 1294, 1374, 1368, 1369 ]
Luciferin 4-monooxygenase, sequence (P08659 whole entry): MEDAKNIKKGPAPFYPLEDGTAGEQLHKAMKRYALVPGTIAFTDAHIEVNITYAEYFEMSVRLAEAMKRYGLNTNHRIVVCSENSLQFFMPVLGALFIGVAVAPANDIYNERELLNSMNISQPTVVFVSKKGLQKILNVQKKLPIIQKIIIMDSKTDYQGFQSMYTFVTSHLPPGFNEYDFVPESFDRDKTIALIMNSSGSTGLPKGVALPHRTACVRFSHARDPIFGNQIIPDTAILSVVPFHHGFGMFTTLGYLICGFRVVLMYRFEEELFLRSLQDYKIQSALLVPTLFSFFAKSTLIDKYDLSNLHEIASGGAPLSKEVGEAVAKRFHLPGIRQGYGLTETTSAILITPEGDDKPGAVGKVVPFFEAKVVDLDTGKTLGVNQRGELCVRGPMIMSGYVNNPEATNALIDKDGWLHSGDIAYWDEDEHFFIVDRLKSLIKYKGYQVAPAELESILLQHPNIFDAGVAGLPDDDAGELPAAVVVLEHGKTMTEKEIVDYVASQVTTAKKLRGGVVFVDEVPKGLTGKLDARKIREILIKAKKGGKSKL

HEK293 [7] = experiment: PMA/Ionomycin induced NF-kB luciferase assay in 293- NF-kB-Luc stable cells. [Related pubchem assays: 1299, 1270, 1295, 1375, 1287, 1281, 1293, 1291, 1289, 1280, 465, 1364, 1282, 1372, 1365, 1370, 1367, 1366, 1269, 1373, 1292, 1290, 1302, 1371, 1283, 1271, 1294, 1374, 1368, 1369 ]; type: functional, cell-based; conditions: Homo sapiens
HEK293 [8] = experiment: PMA/Ionomycin-induced IL-8 production in HEK293- NF-kB-Luc stable cells. [Related pubchem assays: 1299, 1295, 1375, 1287, 1281, 1293, 1291, 1289, 1280, 465, 1364, 1282, 1372, 1365, 1367, 1366, 1266, 1269, 1373, 1292, 1290, 1302, 1371, 1283, 1271, 1294, 1374, 1368, 1369 ]; type: functional, cell-based; conditions: Homo sapiens
HEK293 [9] = experiment: Cytotoxicity assay in HEK293 cells. [Related pubchem assays (depositor defined):AID1266, AID1269, AID1270, AID1271, AID1280, AID1281, AID1282, AID1283, AID1287, AID1289, AID1290, AID1291, AID1292, AID1293, AID1294, AID1295, AID1299, AID1302, AID1364, AID1365, AID1366, AID1367, AID1369, AID1370, AID1371, AID1372, AID1373, AID1374, AID1375, AID1384 …; type: functional, cell-based; conditions: Homo sapiens

Structure (SMILES): Cc1occc1C(=O)NNC(=S)NC(=O)COc1ccc(Cl)cc1Cl
IC50 (NS3): 15.2 µM (not active)
EC50 [2]: 5.96 µM (active)

Structure (SMILES): N#CC(c1ccc(Cl)cc1)c1ccc(Cl)nn1 (stereo unspecified)
AC50 [4]: 0.991 µM (active)

Structure (SMILES): COc1cc(NC(=O)c2cccc3c2C(=O)N(Cc2cccnc2)C3)cc(OC)c1OC
EC50 (HEK293 [5]): > 8 µM (not active)
EC50 [6]: > 8 µM (not active)
EC50 (HEK293 [7]): 0.744 µM (active)
EC50 (HEK293 [8]): 13.9 µM (not active)
EC50 (HEK293 [9]): > 8 µM (inactive)

The next lines start with the values.

IC50 [1]: 36 µM (active)
IC50 (Aminopeptidase N): 71.1 µM (active)
Structure (SMILES): CS(=O)(=O)C1=NSC2=NC(=O)/C(=C\c3ccc(-c4ccccc4)o3)C(=N)N21

EC50 [3]: > 50 µM (not active)
Structure (SMILES): C=CCSC1=N/C(=C\c2ccsc2)C(=O)S1
